The text below walks through data of ChEMBL document CHEMBL1124168 (J Med Chem, 1988).

For experiment [1], the system named is Canis familiaris. Briefly: Antagonist activity was measured by maximum urine flow with a dose of 100 ug/kg peptide. The experiment is classed as functional, Canis lupus familiaris.
The test system of experiment [2] is Canis familiaris. The experiment in a line: Antagonist activity was measured by maximum urine osmolality with a dose of 100 ug/kg peptide after pretreatment with indomethacin ([…]) in dog. The experiment is classed as functional, Canis lupus familiaris.
Experiment [3] concerns the target Vasopressin V2 receptor (Sus scrofa, UniProt P32307). Briefly: In vitro antagonist activity was measured by inhibition of vasopressin-stimulated adenylate cyclase in renal medullary preparation in pig. The experiment is classed as functional, tissue-based, Renal medulla.
In experiment [4] the target is Vasopressin V2 receptor (Homo sapiens, UniProt P30518). Briefly: In vitro antagonist activity was measured by inhibition of vasopressin-stimulated adenylate cyclase in renal medullary preparation in human. The experiment is classed as functional, tissue-based, Renal medulla.
Chain of Vasopressin V2 receptor (Homo sapiens, UniProt P30518) (P30518 whole entry): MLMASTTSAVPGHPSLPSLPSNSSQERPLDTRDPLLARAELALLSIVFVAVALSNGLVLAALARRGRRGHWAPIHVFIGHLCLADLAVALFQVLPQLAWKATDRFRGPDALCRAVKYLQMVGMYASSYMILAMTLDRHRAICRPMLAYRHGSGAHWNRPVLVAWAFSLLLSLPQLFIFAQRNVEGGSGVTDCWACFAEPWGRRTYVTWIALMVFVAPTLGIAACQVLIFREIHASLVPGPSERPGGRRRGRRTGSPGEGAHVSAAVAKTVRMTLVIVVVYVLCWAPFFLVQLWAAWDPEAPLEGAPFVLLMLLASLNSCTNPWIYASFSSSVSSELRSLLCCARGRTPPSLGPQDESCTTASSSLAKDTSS
The species named for experiment [5] is Sus scrofa. The experiment in a line: (§1) In vitro antagonist activity was measured by inhibition of binding of [3H]LVP to renal medullary membrane preparation in pig. The experiment is classed as functional. The following applies: Renal medulla.
In experiment [6] the test system is Rattus norvegicus. Briefly: […] antagonist activity is measured by dose required to lower urine osmolality to 300 mOsm/kg of H2O. The experiment is classed as functional.
The target of experiment [7] is Adenylate cyclase. Briefly: In vitro antagonist activity was measured by inhibition of vasopressin-stimulated adenylate cyclase in renal medullary preparation in human.
Experiment [8] has as its target Vasopressin V2 receptor (Sus scrofa) (UniProt P32307). Described as §1. The experiment is classed as tissue-based. The following applies: Renal medulla.
Experiment [9] has as its system Canis familiaris. The experiment in a line: Antagonist activity was measured by maximum urine osmolality with a dose of 100 ug/kg peptide after pretreatment with indomethacin in dog. The experiment is classed as functional, Canis lupus familiaris.
The subject of experiment [10] is Rattus norvegicus. The experiment in a line: […] antagonist activity was measured by dose required to lower urine osmolality to 300 mOsm/kg of H2O. The experiment is classed as functional.
Experiment [11] has as its system Canis familiaris. Briefly: Agonist activity was measured as maximum urine osmolality with a dose of 100 ug/kg peptide after pretreatment with indomethacin in dog.

By Ki is commonly meant the equilibrium dissociation constant of an inhibitor or competing ligand from its target. Higher therefore signals lower affinity. As usually defined, the Kb is the affinity of an antagonist, worked out from how it opposes an agonist.

Chain of Vasopressin V2 receptor (Sus scrofa, UniProt P32307) (P32307 whole entry): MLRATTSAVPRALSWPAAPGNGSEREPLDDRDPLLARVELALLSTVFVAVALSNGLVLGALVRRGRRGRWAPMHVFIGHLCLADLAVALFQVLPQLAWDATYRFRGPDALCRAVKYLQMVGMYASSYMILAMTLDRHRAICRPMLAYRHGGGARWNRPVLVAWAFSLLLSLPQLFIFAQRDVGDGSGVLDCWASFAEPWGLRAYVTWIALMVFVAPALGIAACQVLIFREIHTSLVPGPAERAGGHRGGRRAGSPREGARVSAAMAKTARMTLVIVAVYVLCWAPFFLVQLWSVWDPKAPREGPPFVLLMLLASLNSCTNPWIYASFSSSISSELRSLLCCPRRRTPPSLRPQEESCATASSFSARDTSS
Chain of Vasopressin V2 receptor (Sus scrofa) (P32307 whole entry): as above

`N=C(N)NCCC[C@H](NC(=O)[C@@H]1CCCN1C(=O)[C@@H]1CSSC[C@H](N)C(=O)N[C@@H](Cc2ccc(O)cc2)C(=O)N[C@@H](Cc2ccccc2)C(=O)N[C@@H](CCC(N)=O)C(=O)N[C@@H](CC(N)=O)C(=O)N1)C(=O)NCC(N)=O` [VASOPRESSIN] yielded a Volume in experiment [1] of 1.4 mL/min. Further, in [2], the U osm is reported as 939 mOsmol kg-1.

For the molecule `CCOc1ccc(C[C@H]2NC(=O)CC3(CCCCC3)SSCC(C(=O)N[C@@H](CCCN=C(N)N)C(N)=O)NC(=O)[C@H](CC(N)=O)NC(=O)[C@H](C(C)C)NC(=O)[C@H](Cc3ccccc3)NC2=O)cc1` (some centres not stated), the Ki in [3] is 2.9 nM; in experiment [4], 1.5 nM. This molecule came in with a Kb in experiment [5] of 10.2 nM. This molecule also returned an ED300 in experiment [6] of 0.058 mg/kg.

For the molecule `CCOc1ccc(C[C@H]2NC(=O)CC3(CCCCC3)CCC[C@@H](C(=O)N3CCC[C@H]3C(=O)N[C@@H](CCCN=C(N)N)C(N)=O)NC(=O)[C@H](CC(N)=O)NC(=O)[C@H](C(C)C)NC(=O)[C@H](Cc3ccccc3)NC2=O)cc1` [listing 1 of 2 here], the figures for the Ki in [3] and in experiment [4] were 3.5 nM and 2.7 nM, respectively.

For the molecule `CCOc1ccc(C[C@H]2NC(=O)CC3(CCCCC3)CCCC(C(=O)N[C@@H](CCCN=C(N)N)C(N)=O)NC(=O)[C@H](CC(N)=O)NC(=O)[C@H](C(C)C)NC(=O)[C@H](Cc3ccccc3)NC2=O)cc1` (some centres not stated), the affinity in experiment [7] corresponds to a Ki of 4.4 nM. Also, in experiment [6], the ED300 turned out to be 0.028 mg/kg. Also, the Kb in experiment [8] stood at 14 nM.

Regarding `COc1ccc2c(c1)c(CC(=O)O)c(C)n2C(=O)c1ccc(Cl)cc1` [INDOMETHACIN], the Volume in experiment [1] amounted to 2.8 mL/min. Further, the U osm in [9] is 92 mOsmol kg-1.

As for `CCOc1ccc(C[C@H]2NC(=O)CC3(CCCCC3)SSC[C@@H](C(=O)N3CCC[C@H]3C(=O)N[C@@H](CCCN=C(N)N)C(N)=O)NC(=O)[C@H](CC(N)=O)NC(=O)[C@H](C(C)C)NC(=O)[C@H](Cc3ccccc3)NC2=O)cc1`, the Volume in experiment [1] was determined as 0.07 mL/min. In addition, the U osm in [9] was determined as 1302 mOsmol kg-1. Besides, the ED300 in experiment [10] was 0.0084 mg/kg.

`CCOc1ccc(C[C@H]2NC(=O)CC3(CCCCC3)CCCC(C(=O)N3CCC[C@@H]3C(=O)N[C@@H](CCCN=C(N)N)C(N)=O)NC(=O)[C@H](CC(N)=O)NC(=O)[C@H](C(C)C)NC(=O)[C@H](Cc3ccccc3)NC2=O)cc1` (some centres not stated) showed a Kb in experiment [5] of 7.1 nM.

`CCOc1ccc(C[C@H]2NC(=O)CC3(CCCCC3)CCC[C@@H](C(=O)N3CCC[C@H]3C(=O)N[C@@H](CCCN=C(N)N)C(N)=O)NC(=O)[C@H](CC(N)=O)NC(=O)[C@H](C(C)C)NC(=O)[C@H](Cc3ccccc3)NC2=O)cc1` [listing 2 of 2 here]: the Volume in experiment [1] came to 0.69 mL/min. The same molecule returned an ED300 in experiment [10] of 0.0122 mg/kg. Besides, in experiment [11], the U osm is given as 319 mOsmol kg-1.

In [1], `CCOc1ccc(C[C@H]2NC(=O)CC3(CCCCC3)CCCC(C(=O)N[C@@H](CCCN=C(N)N)C(=O)N[C@H](CCCN=C(N)N)C(N)=O)NC(=O)[C@H](CC(N)=O)NC(=O)[C@H](C(C)C)NC(=O)[C@H](Cc3ccccc3)NC2=O)cc1` (some centres not stated) came in with a Volume of 4.6 mL/min. This molecule also gave a Ki in experiment [4] of 3.9 nM. Moreover, in [9], the U osm was 56 mOsmol kg-1. The same molecule had an ED300 in [10] of 0.009 mg/kg. The molecule also showed a Kb in experiment [5] of 5.1 nM.

Regarding `CCOc1ccc(C[C@H]2NC(=O)CC3(CCCCC3)SSCC(C(=O)N3CCC[C@@H]3C(=O)N[C@@H](CCCN=C(N)N)C(N)=O)NC(=O)[C@H](CC(N)=O)NC(=O)[C@H](C(C)C)NC(=O)[C@H](Cc3ccccc3)NC2=O)cc1` (some centres not stated), the Kb in experiment [5] stood at 11.8 nM.

Turning to `CCOc1ccc(C[C@H]2NC(=O)CC3(CCCCC3)SSCC(C(=O)N[C@@H](CCCN=C(N)N)C(=O)N[C@H](CCCN=C(N)N)C(N)=O)NC(=O)[C@H](CC(N)=O)NC(=O)[C@H](C(C)C)NC(=O)[C@H](Cc3ccccc3)NC2=O)cc1` (some centres not stated), the values for the Ki in experiment [3] and in experiment [4] were 1.6 nM and 2.4 nM, respectively. This molecule also showed a Volume in [1] of 0.76 mL/min. Moreover, the U osm in experiment [9] is 429 mOsmol kg-1. The molecule further had an ED300 in experiment [10] of 0.0135 mg/kg. The Kb in experiment [5] was 5.4 nM.
